# Data taken from patent US11819533B2, “Compositions and methods for the treatment of fungal infections” (Cidara Therapeutics, Inc., priority 2017, dated 2023).
# “Also recorded” adds a separate entry of the source. Starred links: 1 amine or outer side, 2 acyl side, 3 side chain; linkers in the order of their positions; H or OH if unused. Positions of bridges follow the written chain, without caps; N, C: chain ends. Non-standard residues stand in square brackets, D forms with d. Residues, ends and D or L forms follow the SMILES beside them. *: point of attachment. Orn(4R-OH,5R-OCH2CH2NMe3+) = C[N+](C)(C)CCO[C@@H](N[*:3])[C@H](O)C[C@H](N[*:1])C(=O)[*:2]; pTerphenylCO(4''-OnC5H11) = CCCCCOc1ccc(-c2ccc(-c3ccc(C(=O)*)cc3)cc2)cc1; hTyr(3S-OH,4S-OH) = N[C@H](C(=O)O)[C@H](O)[C@@H](O)c1ccc(O)cc1; Pro(3S-OH,4S-Me) = C[C@H]1CN[C@H](C(=O)O)[C@H]1O; Hyp = O=C(O)[C@@H]1C[C@@H](O)CN1
# Columns and labels:
# cynomolgus monkeys = assay: Single-dose intravenous infusion tolerability study; format: in vivo
# Protocol: The objective of this study was to evaluate and compare the tolerability of CD101 when administered once by either a 20-minute or 60-minute intravenous infusion to cynomolgus monkeys. In addition, a vehicle similar to the intended initial clinical formulation was assessed when administered once by 20-minute intravenous infusion up to the highest feasible dose (10 mg/kg).
# This study was divided into 2 phases (Table 8). In phase 1, CD101 acetate was administered in vehicle-1 (1.25% Tween 80, 5% mannitol, 0.3% glacial acetic acid adjusted to pH 4.5±0.1) as a single 20-minute (±2 minutes) intravenous infusion to 1 animal/sex/group at 0 and 30 mg/kg (Groups 1 and 2, respectively). In addition, CD101 acetate was administered in vehicle-1 as a single 60-minute (±5 minutes) intravenous infusion to 1 animal/sex/group at 0 and 30 mg/kg (Groups 3 and 4, respectively).
# Dosing was staggered so that Group 5 was dosed 2 days after Groups 1-4.
# [1] = Dropwise addition of CD101 acetate 4 mg/mL solutions to 0.9% saline solution or PBS buffer, observed for drug insolubility; format: physicochemical
# Protocol: CD101 acetate 20 mg/kg dose was prepared in w/w in 5% dextrose solution (CD101 acetate at 4 mg/mL solution) for the following solutions using the salt to free base correction factor of 0.8784 for CD101 acetate: […]
# 0.5% w/w Tween 80 used. The pH of the solution is 5.21 (22.8 mg CD101 acetate into 5 mL 5% Dextrose with 0.5% w/w Tween 80 (0.1 g Tween 80+19.9 g 5% Dextrose))
# 1.0% w/w Tween 80 used. The pH of the solutions is 5.27 (22.9 mg CD101 acetate into 5 mL 5% Dextrose with 1.0% w/w Tween 80 (0.2 g Tween 80+19.8 g 5% Dextrose))
# 2.5% w/w Tween 80 used. The pH of the solutions is 5.29 (22.7 mg CD101 acetate into 5 mL 5% Dextrose with 2.5% w/w Tween 80 (0.5 g Tween 80+[…] 5% Dextrose))
# 1.0% w/w Tween 80 used. The pH of the solution was adjusted to 6.64 using 0.1 N NaOH. (22.9 mg CD101 acetate into 5 mL 5% Dextrose with 1.0% w/w Tween 80 (0.2 g Tween 80+19.8 g 5% Dextrose))
# [2] = 4 mg/mL in 5% dextrose and 1.0% Tween 80, adjusted to 6.64 pH using 0.1N NaOH
# [3] = 4 mg/mL in 5% dextrose and 1.0% Tween 80, pH 5.3
# [4] = 4 mg/mL in 5% dextrose and 2.5% Tween 80, pH 5.3
structure (smiles),measurement,setting,value
"CCCCCOc1ccc(-c2ccc(-c3ccc(C(=O)N[C@H]4C[C@@H](O)[C@@H](OCC[N+](C)(C)C)NC(=O)[C@@H]5[C@@H](O)[C@@H](C)CN5C(=O)[C@H]([C@@H](C)O)NC(=O)[C@H]([C@H](O)[C@@H](O)c5ccc(O)cc5)NC(=O)[C@@H]5C[C@@H](O)CN5C(=O)[C@H]([C@@H](C)O)NC4=O)cc3)cc2)cc1 [CD101 acetate] ({pTerphenylCO(4''-OnC5H11)}-[Orn(4R-OH,5R-OCH2CH2NMe3+)]T[Hyp][hTyr(3S-OH,4S-OH)]T[Pro(3S-OH,4S-Me)]; lactam 1-C)",Tolerability in vehicle similar to intended clinical formulation,"cynomolgus monkeys; 10 mg/kg (highest feasible dose), 20-minute IV infusion in vehicle-2 (0.50% Tween 80, 0.76% mannitol, 0.125% sodium lactate in 3.5% dextrose, pH 5.5)",can be administered safely
same,Tolerability of 20-minute versus 60-minute infusion,"cynomolgus monkeys; single IV infusion 30 mg/kg in vehicle-1 (1.25% Tween 80, 5% mannitol, 0.3% glacial acetic acid, pH 4.5)",no differences that could be attributed to the duration of infusion; also recorded: no differences between the tolerability of a 20-minute and 60-minute infusion
same,Clinical observations,"cynomolgus monkeys; single IV infusion, 30 mg/kg in vehicle-1 (20 or 60 min) or 10 mg/kg in vehicle-2 (20 min)",No other remarkable clinical observations
same,Appearance after 1.5 mL added to (A) 5 mL 0.9% saline solution,[1]; [2],Clear
same,Appearance after 1.5 mL added to (B) 5 mL PBS buffer,[1]; [2],Clear
same,Appearance after 1.5 mL added to (A) 5 mL 0.9% saline solution,[1]; [3],Clear
same,Appearance after 1.5 mL added to (B) 5 mL PBS buffer,[1]; [3],Clear
same,Appearance after 1.5 mL added to (A) 5 mL 0.9% saline solution,[1]; [4],Clear
same,Appearance after 1.5 mL added to (B) 5 mL PBS buffer,[1]; [4],Clear
